From patent publication US12569467B2, “Small molecules that treat or prevent viral infections” (priority 2022, dated 2026) come the findings set out here.

Data set [1] addresses SARS-CoV2 spike protein (Severe acute respiratory syndrome coronavirus 2, UniProt P0DTC2). The format is binding.
Data set [2] concerns HEK293 cells. The conditions noted are these: PrestoBlue, various concentrations, within the indicated concentrations (FIG. 3E).

As for `O=C1Nc2ccccc2/C1=C\c1ccc(-c2cc(C(F)(F)F)cc(C(F)(F)F)c2)o1` [CD04872SC, 3-({5-[3,5-di(trifluoromethyl)phenyl]-2-furyl}methylidene)indolin-2-one], in data set [1], the “difference of thermal stability (Tm) in presence versus absence of compound” value was “about 3 Celsius degrees”. For the same compound, the cell cytotoxicity result in data set [2] is “without major cell cytotoxicity”.
